Experimental data taken from US20080076760A1, “2,3,4,5-TETRAHYDRO-1H-1,5-BENZODIAZEPINE DERIVATIVE AND MEDICINAL COMPOSITION” (priority 2004, published 2008).

What was measured:
[1] = biological target: human vasopressin V1a receptor (Homo sapiens, UniProt P37288); assay: Receptor binding study, [3H]AVP displacement on CHO cell membranes, human V1a; conditions: [3H]AVP displacement, CHO cell membrane, 25° C., one hour; read-out: Human V1a Ki
Experimental: (§1) (ii) Receptor Binding Study
(§2) Assay was performed using 50 mM of Tris-HCl (pH=7.4) (total amount: 250 μL) (buffer composition: containing […] of MgCl2 and 0.1% BSA), and incubation was performed at room temperature (25° C.) for one hour. After incubation, suck filtration was immediately performed and reaction was completed when the membrane sample was collected on a glass fiber filter fitted with the microplate. After the filter was washed with an ice-cold Tris-HCl buffer (50 mM Tris-HCl, 10 mM MgCl2, pH 7.4), radioactivity measurement was performed. Nonspecific binding was determined using nonradioactive-labeled AVP (1 μM).

[2] = biological target: human vasopressin V2 receptor (Homo sapiens, UniProt P30518); assay: Receptor binding study, [3H]AVP displacement on CHO cell membranes, human V2; conditions: [3H]AVP displacement, CHO cell membrane, 25° C., one hour; read-out: Human V2 Ki
human vasopressin V2 receptor, sequence (P30518 whole entry): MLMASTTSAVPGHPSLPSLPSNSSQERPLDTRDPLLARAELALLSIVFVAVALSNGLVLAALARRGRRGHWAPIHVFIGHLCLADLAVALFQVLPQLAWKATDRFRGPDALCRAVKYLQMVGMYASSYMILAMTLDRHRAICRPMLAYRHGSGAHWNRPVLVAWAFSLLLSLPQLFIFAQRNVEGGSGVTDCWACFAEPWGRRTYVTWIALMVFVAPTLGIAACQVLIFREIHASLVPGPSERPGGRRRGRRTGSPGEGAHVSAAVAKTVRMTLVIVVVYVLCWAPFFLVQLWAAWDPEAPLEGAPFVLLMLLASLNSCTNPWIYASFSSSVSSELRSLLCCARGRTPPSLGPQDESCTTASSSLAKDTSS
Experimental: Preparation of Chinese hamster ovary (Cho) cell which expresses human vasopressin receptor subtype and production of membrane sample of the cell was conducted according to the method of Tahara et al. (Br. J. Pharmacol., 125, 1463-1470, 1998).
as §1
as §2, with “In saturation binding experiment, the membrane sample and [^3H]AVP of several concentrations (0.125 nM to 4.0 nM) were mixed and incubated in microplate wells. In displacement experiment, [^3H]AVP of constant concentrations (0.5 nM to 1.0 nM) and the membrane sample were mixed with Compound A of several concentrations, and incubation was performed. Assay” for “Assay”

human vasopressin V1a receptor, sequence (P37288 whole entry): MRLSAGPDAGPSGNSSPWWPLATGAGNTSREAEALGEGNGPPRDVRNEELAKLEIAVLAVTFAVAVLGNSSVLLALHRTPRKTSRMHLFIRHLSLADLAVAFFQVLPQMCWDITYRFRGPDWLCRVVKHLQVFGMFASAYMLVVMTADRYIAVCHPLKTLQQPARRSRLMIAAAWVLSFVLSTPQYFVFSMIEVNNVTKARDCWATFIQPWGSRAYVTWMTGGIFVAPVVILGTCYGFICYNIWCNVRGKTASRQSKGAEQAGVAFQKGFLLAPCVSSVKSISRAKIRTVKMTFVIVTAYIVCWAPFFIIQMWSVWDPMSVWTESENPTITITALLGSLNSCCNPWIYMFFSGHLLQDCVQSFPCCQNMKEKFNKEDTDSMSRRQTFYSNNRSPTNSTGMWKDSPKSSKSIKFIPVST

SMILES | Ki [1] | Ki [2]
COc1cc(C(=O)N2CCC(C)Nc3ccccc32)ccc1-c1ccc2[nH]ccc2c1 (stereo not drawn) [Example 1, 1-[4-(1H-indol-5-yl)-3-methoxybenzoyl]-4-methyl-2,3,4,5-tetrahydro-1H-1,5-benzodiazepine] | 0.39 nM | 1.7 nM
COc1cc(C(=O)N2CCC(C)(C)Nc3ccccc32)ccc1-c1ccc2[nH]ccc2c1 [Example 2, 1-[4-(1H-indol-5-yl)-3-methoxybenzoyl]-4,4-dimethyl-2,3,4,5-tetrahydro-1H-1,5-benzodiazepine] | 0.31 nM | 4.4 nM
CC(=O)Nc1cc(C(=O)N2CCC(C)Nc3ccccc32)ccc1-c1ccc2[nH]ccc2c1 (stereo not drawn) [Example 3, N-[2-(1H-indol-5-yl)-5-[(4-methyl-2,3,4,5-tetrahydro-1H-1,5-benzodiazepin-1-yl)carbonyl]phenyl]acetamide] | 0.18 nM | 22 nM
CC(=O)Nc1cc(C(=O)N2CCC(C(C)C)Nc3ccccc32)ccc1-c1ccc2[nH]ccc2c1 (stereo not drawn) [Example 7, N-[2-(1H-indol-5-yl)-5-[(4-isopropyl-2,3,4,5-tetrahydro-1H-1,5-benzodiazepin-1-yl)carbonyl]phenyl]acetamide] | 0.38 nM | 15 nM
CCC1CCN(C(=O)c2ccc(-c3ccc4[nH]ccc4c3)c(NC(C)=O)c2)c2ccccc2N1 (stereo not drawn) [Example 8, N-[5-[(4-ethyl-2,3,4,5-tetrahydro-1H-1,5-benzodiazepin-1-yl)carbonyl]-2-(1H-indol-5-yl)-phenyl]acetamide] | 0.16 nM | 15 nM
CC(=O)Nc1cc(C(=O)N2CC[C@@H](C)Nc3ccccc32)ccc1-c1ccc2[nH]ccc2c1 [Example 16, N-[2-(1H-indol-5-yl)-5-[[(4R)-4-methyl-2,3,4,5-tetrahydro-1H-1,5-benzodiazepin-1-yl]carbonyl]phenyl]acetamide] | 0.33 nM | 63 nM
CC(=O)Nc1cc(C(=O)N2CC[C@H](C)Nc3ccccc32)ccc1-c1ccc2[nH]ccc2c1 [Example 17, N-[2-(1H-indol-5-yl)-5-[[(4S)-4-methyl-2,3,4,5-tetrahydro-1H-1,5-benzodiazepin-1-yl]carbonyl]phenyl]acetamide] | 0.13 nM | 11 nM
CC1CCN(C(=O)c2ccc(-c3ccc4[nH]ccc4c3)c(OCCCN)c2)c2ccccc2N1 (stereo not drawn) [Example 30, 3-[2-(1H-indol-5-yl)-5-[(4-methyl-2,3,4,5-tetrahydro-1H-1,5-benzodiazepin-1-yl)carbonyl]phenoxy]-1-propaneamine] | 0.091 nM | 17 nM
CC1CCN(C(=O)c2ccc(-c3ccc4[nH]ccc4c3)c(OCCCCN)c2)c2ccccc2N1 (stereo not drawn) [Example 36, 4-[2-(1H-indol-5-yl)-5-[(4-methyl-2,3,4,5-tetrahydro-1H-1,5-benzodiazepin-1-yl)carbonyl]phenoxy]-1-butaneamine] | 0.23 nM | 11 nM

Second part, the molecule after the results:

Ki [1] | Ki [2] | SMILES
0.24 nM | 4.3 nM | CC1CCN(C(=O)c2ccc(-c3ccc4[nH]ccc4c3)c(OCCCCCN)c2)c2ccccc2N1 (stereo not drawn) [Example 37, 5-[2-(1H-indol-5-yl)-5-[(4-methyl-2,3,4,5-tetrahydro-1H-1,5-benzodiazepin-1-yl)carbonyl]phenoxy]-1-pentaneamine]
0.086 nM | 11 nM | C[C@H]1CCN(C(=O)c2ccc(-c3ccc4[nH]ccc4c3)c(OCCCN)c2)c2ccccc2N1 [Example 38, 3-[2-(1H-indol-5-yl)-5-[[(4S)-4-methyl-2,3,4,5-tetrahydro-1H-1,5-benzodiazepin-1-yl]carbonyl]phenoxy]propylamine]
0.22 nM | 5.2 nM | CC1CCN(C(=O)c2ccc(-c3ccc4[nH]ccc4c3)c(OCCCCCCN)c2)c2ccccc2N1 (stereo not drawn) [Example 39, 6-[2-(1H-indol-5-yl)-5-[(4-methyl-2,3,4,5-tetrahydro-1H-1,5-benzodiazepin-1-yl)carbonyl]phenoxy]hexylamine]
0.19 nM | 34 nM | CC1CCN(C(=O)c2ccc(-c3ccc4[nH]ccc4c3)c(OCCCN(C)C)c2)c2ccccc2N1 (stereo not drawn) [Example 42, 3-[2-(1H-indol-5-yl)-5-[(4-methyl-2,3,4,5-tetrahydro-1H-1,5-benzodiazepin-1-yl)carbonyl]phenoxy]-N,N-dimethyl-1-propaneamine]
0.24 nM | 1.1 nM | CC1CCN(C(=O)c2ccc(-c3ccc4[nH]ccc4c3)c(OCCN3CCOCC3)c2)c2ccccc2N1 (stereo not drawn) [Example 46, 2-(1H-indol-5-yl)-5-[(4-methyl-2,3,4,5-tetrahydro-1H-1,5-benzodiazepin-1-yl)carbonyl]phenyl 2-(4-morpholinyl)ethyl ether]
0.39 nM | 1.2 nM | COc1cc(C(=O)N2CC[C@H](C)Nc3ccccc32)ccc1-c1ccc2[nH]ccc2c1 [Example 47, (4S)-1-[4-(1H-indol-5-yl)-3-methoxybenzoyl]-4-methyl-2,3,4,5-tetrahydro-1H-1,5-benzodiazepine]
0.23 nM | 1.5 nM | C[C@H]1CCN(C(=O)c2ccc(-c3ccc4[nH]ccc4c3)c(NS(C)(=O)=O)c2)c2ccccc2N1 [Example 48, N-[2-(1H-indol-5-yl)-5-[[(4S)-4-methyl-2,3,4,5-tetrahydro-1H-1,5-benzodiazepin-1-yl]carbonyl]phenyl]methanesulfonamide]
0.079 nM | 12 nM | CNCCCOc1cc(C(=O)N2CC[C@H](C)Nc3ccccc32)ccc1-c1ccc2[nH]ccc2c1 [Example 51, N-[3-[2-(1H-indol-5-yl)-5-[[(4S)-4-methyl-2,3,4,5-tetrahydro-1H-1,5-benzodiazepin-1-yl]carbonyl]phenoxy]propyl]-N-methylamine]
0.41 nM | 731 nM | C[C@H]1CCN(C(=O)c2ccc(-c3ccc(N)cc3)c(OCCCN)c2)c2ccccc2N1 [Example 54, 2′-(3-aminopropoxy)-4′-[[(4S)-4-methyl-2,3,4,5-tetrahydro-1H-1,5-benzodiazepin-1-yl]carbonyl][1,1′-biphenyl]-4-amine]
0.31 nM | 25 nM | C[C@@H]1CCN(C(=O)c2ccc(-c3ccc4[nH]ccc4c3)c(OCCCN)c2)c2ccccc2N1 [Example 55, 3-[2-(1H-indol-5-yl)-5-[[(4R)-4-methyl-2,3,4,5-tetrahydro-1H-1,5-benzodiazepin-1-yl]carbonyl]phenoxy]propylamine]
0.23 nM | 0.89 nM | C[C@H]1CCN(C(=O)c2ccc(-c3ccc4[nH]ccc4c3)c(OCCN3CCOCC3)c2)c2ccccc2N1 [Example 59, (4S)-1-[4-(1H-indol-5-yl)-3-[2-(4-morpholinyl)ethoxy]benzoyl]-4-methyl-2,3,4,5-tetrahydro-1H-1,5-benzodiazepine]
0.27 nM | 84 nM | C[C@H]1CCN(C(=O)c2ccc(-c3ccc(N)cc3)c(OCCN3CCOCC3)c2)c2ccccc2N1 [Example 60, 4′-[[(4S)-4-methyl-2,3,4,5-tetrahydro-1H-1,5-benzodiazepin-1-yl]carbonyl]-2′-[2-(4-morpholinyl)ethoxy][1,1′-biphenyl]-4-amine]
0.22 nM | 1.9 nM | C[C@H]1CCN(C(=O)c2ccc(-c3ccc4[nH]ccc4c3)c(OCCCN3CCOCC3)c2)c2ccccc2N1 [Example 61, (4S)-1-[4-(1H-indol-5-yl)-3-[3-(4-morpholinyl)propoxy]benzoyl]-4-methyl-2,3,4,5-tetrahydro-1H-1,5-benzodiazepine]
 | 143 nM | COc1ccc(S(=O)(=O)N2c3ccc(Cl)cc3[C@](O)(c3ccccc3Cl)[C@@H]2C(=O)N2CCC[C@H]2C(N)=O)cc1OC [SR49059, reference compound]
